Test results published in paper PMC12128885, “Myricetin-bound crystal structure of the SARS-CoV-2 helicase NSP13 facilitates the discovery of novel natural inhibitors” (Acta Crystallographica Section D: Structural Biology, 2025).
“Also recorded” adds a separate entry of the source. Where two headings read alike, the source gives them in different places.

Assays:
[1] = test system: Wuhan-like SARS-CoV-2 strain; experiment: microbe, parasite or virus in culture; assay type: cell-based
[2] = target: spike protein; details: read-out: Kd, spike protein; ref Su et al., 2021; Pan et al., 2023; Kuzikov et al., 2024; cited from earlier work
[3] = test system: main protease (NSP5); details: 2024, cited from earlier work
[4] = target: RNA-dependent RNA polymerase (NSP12); parameters: method as in Su et al., 2021; Pan et al., 2023; Kuzikov et al., 2024; details: ref Su et al., 2021; Pan et al., 2023; Kuzikov et al., 2024; cited from earlier work

O=C(/C=C/c1ccc(O)c(O)c1)O[C@@H]1C[C@](O)(C(=O)O)C[C@@H](O)[C@H]1O [Chlorogenic acid, (1S,3R,4R,5R)-3-[(E)-3-(3,4-Dihydroxyphenyl)prop-2-enoyl]oxy-1,4,5-trihydroxycyclohexane-1-carboxylic acid]
IC50, infection assay (percentage of infected cells) ([1]; Vero E6 cells, MOI 0.3, 48 h, compound 1 h before infection): no significant effect; also recorded: no significant inhibition

O=c1c(O)c(-c2cc(O)c(O)c(O)c2)oc2cc(O)cc(O)c12 [Myricetin, 3,5,7-Trihydroxy-2-(3,4,5-trihydroxyphenyl)chromen-4-one]
Kd [2]: 2670 nM
IC50 ([3]; ref Su et al., 2021, Pan et al., 2023, Kuzikov et al., read-out: IC50, main protease (NSP5)): 630 nM
IC50 [4]: 860 nM

O=c1nc(NO)ccn1[C@@H]1O[C@H](CO)[C@@H](O)[C@H]1O [NHC, β-D-N4-hydroxycytidine, reference compound]
IC50 ([1]; Vero E6 cells, MOI 0.3, 48 h, compound 1 h before infection, read-out: IC50, infection assay (percentage of infected cells)): 745 nM

O=C(/C=C/c1ccc(O)c(O)c1)O[C@H](Cc1ccc(O)c(O)c1)C(=O)O [Rosmarinic acid, (2R)-3-(3,4-Dihydroxyphenyl)-2-[(E)-3-(3,4-dihydroxyphenyl)prop-2-enoyl]oxypropanoic acid]
IC50 ([3]; noncovalent binding to active site, ref Li et al., read-out: IC50, NSP5): 2180 nM
IC50 ([1]; Severe acute respiratory syndrome coronavirus 2, Vero C1008, read-out: IC50, infection assay (percentage of infected cells)): 59300 nM
